In article PMC9495854, “Novel Phenothiazine/Donepezil-like Hybrids Endowed with Antioxidant Activity for a Multi-Target Approach to the Therapy of Alzheimer’s Disease” (Antioxidants, 2022):
Marks after values point to notes of the source that are not given here.

Key:
[1] = test system: HepG2 cells; assay: DCFH-DA cell-based antioxidant assay (H2O2-induced oxidation), HepG2; conditions: Homo sapiens, 1 h compound, 100 μM H2O2, read-out: DCFDH-DA IC50 ± SEM HepG2
Protocol: (§1) HepG2 cells were cultured in Eagle’s Minimum Essential Medium (MEM, Euroclone S.p.A., Pero, MI, Italy), supplemented with 10% Fetal Bovine Serum (FBS, Euroclone S.p.A., Pero, MI, Italy), 1% L-glutamine (Euroclone S.p.A., Pero, MI, Italy), 100 U/mL penicillin/streptomycin (Euroclone S.p.A., Pero, MI, Italy), 1% Non-Essential Amino Acids (NEAA, Euroclone S.p.A., Pero, MI, Italy). SH-SY5Y cells were grown in a 1:1 mixture of Dulbecco’s modified Eagle’s medium (DMEM)—high glucose (Euroclone S.p.A., Pero, MI, Italy) and Ham’s F12 Medium (Euroclone S.p.A., Pero, MI, Italy) supplemented with 10% FBS, 1% L-glutamine and 100 U/mL penicillin/streptomycin. For cell assays, cells were trypsinized using Trypsin-EDTA 1X in PBS (Euroclone S.p.A., Pero, MI, Italy).
According to a slightly modified procedure already reported in the literature, the generation of ROS was determined using an oxidation-sensitive fluorescent probe, 2′,7′-dichlorodihydrofluorescein diacetate (DCFH-DA, D6665; Sigma-Aldrich, St. Louis, MO, USA). Briefly, viable cells were seeded in a black 96-well cell culture plate (Costar, Sigma-Aldrich, St. Louis, MO, USA) and after 24 h were incubated with different concentrations (0.1–100 µM) of each compound for 1 h at 37 °C in 5% CO2. […] After washing using PBS, 100 μM H2O2 in medium without serum was added to each well and the cells were incubated for an additional 30 min. The formation of fluorescent dichlorofluorescein (DCF) due to oxidation of DCFH in the presence of ROS, was read at 530 nm using a microplate reader Tecan Infinite M1000 Pro (Tecan, Cernusco S.N., Italy) and DMSO medium was used for control cells. The results are expressed as mean ± SEM of at least three independent measurements in triplicate.

[2] = biological target: T1, hAChE (Homo sapiens, UniProt P22303); assay: biochemical; format: biochemical; conditions: mean ± SEM; for hAChE I% at 10 µM: inhibition at 10 µM
T1 construct: purchased
T1 sequence (P22303 32-614): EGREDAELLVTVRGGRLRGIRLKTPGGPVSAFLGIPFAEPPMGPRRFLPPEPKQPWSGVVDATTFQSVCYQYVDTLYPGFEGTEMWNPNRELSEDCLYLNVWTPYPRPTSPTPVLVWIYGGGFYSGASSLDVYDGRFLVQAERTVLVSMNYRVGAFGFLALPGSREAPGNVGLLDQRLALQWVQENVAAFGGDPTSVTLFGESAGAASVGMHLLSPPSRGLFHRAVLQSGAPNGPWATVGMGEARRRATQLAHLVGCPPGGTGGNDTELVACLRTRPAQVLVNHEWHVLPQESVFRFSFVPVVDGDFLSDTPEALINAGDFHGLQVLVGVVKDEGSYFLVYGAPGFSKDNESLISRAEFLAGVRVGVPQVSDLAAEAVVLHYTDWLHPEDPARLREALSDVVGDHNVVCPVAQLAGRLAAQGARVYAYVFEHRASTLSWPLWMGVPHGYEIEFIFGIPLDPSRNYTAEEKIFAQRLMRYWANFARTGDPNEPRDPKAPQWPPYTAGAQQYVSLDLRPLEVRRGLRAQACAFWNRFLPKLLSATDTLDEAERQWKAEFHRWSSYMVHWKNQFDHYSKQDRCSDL
Protocol: (§2) The experiments were carried out using a properly modified version of Ellman’s spectrophotometric assay, adapted to a 96-well plate procedure. All reagents, including enzymes, were purchased from common suppliers. Incubation of the proper enzyme with the single compound at different concentrations was performed in clear flat-bottomed, 96-well plates (Greiner Bio-One GmbH, Frickenhausen, Germany) and in duplicate. […] Fluorescence measures were carried out using Tecan Infinite M1000 Pro multiplate reader (Tecan, Cernusco S.N., Italy). IC50 values and inhibition values were calculated as the mean of three independent experiments and are expressed as mean ± SEM [13].

[3] = MTT cell viability assay, SH-SY5Y; format: cell-based; conditions: human, SH-SY5Y cells, SHSY-5Y; for IC50 at 1 h: 1 h exposure; for IC50 at 24 h: 24 h exposure, read-out: MTT cytotoxicity IC50 ± SEM SHSY-5Y 24 h
Protocol: as §1, with “Human hepatocellular liver carcinoma (HepG2) cell line and human neuroblastoma cell line, SH-SY5Y, were purchased from the American Type Culture Collection (ATCC, Manassas, VA, USA) and maintained at 37 °C in a humidified atmosphere (95% air and 5% carbon dioxide), and they were periodically screened for contamination. HepG2” for “HepG2”
HepG2 and SH-SY5Y cell viability was assessed as previously reported by using a conventional 3-(4,5-dimethylthiazol-2-yl)-2,5-diphenyltetrazolium bromide (MTT) assay. In brief, viable cells were seeded and grown for 24 h into a sterile 96-well cell culture cluster (Corning, Sigma-Aldrich, St. Louis, MO, USA) in a complete medium and maintained at 37 °C in a humidified atmosphere with 5% CO2. The cells were then added with different concentrations of each compound for a period of 1 h or 24 h. At the end, the culture medium was replaced by a solution of 0.5 mg/mL MTT (Sigma-Aldrich, St. Louis, MO, USA) in PBS. After 2 h of incubation at 37 °C in 5% CO2, the supernatant was carefully removed from each well, and the formazan crystals were dissolved in DMSO. The absorbance values were measured at 570 nm using Tecan Infinite M1000 Pro (Tecan, Cernusco S.N., Italy) and DMSO medium as blank solution. The results were reported as % cell viability = [optical density (OD) of tested compound/medium OD of control cells] × 100. The results are expressed as mean ± SEM of at least three independent measurements in triplicate.

[4] = biological target: T2, hBChE (Homo sapiens, UniProt P06276); assay: biochemical; conditions: mean ± SEM
T2 construct: purchased
T2 sequence (P06276 29-602): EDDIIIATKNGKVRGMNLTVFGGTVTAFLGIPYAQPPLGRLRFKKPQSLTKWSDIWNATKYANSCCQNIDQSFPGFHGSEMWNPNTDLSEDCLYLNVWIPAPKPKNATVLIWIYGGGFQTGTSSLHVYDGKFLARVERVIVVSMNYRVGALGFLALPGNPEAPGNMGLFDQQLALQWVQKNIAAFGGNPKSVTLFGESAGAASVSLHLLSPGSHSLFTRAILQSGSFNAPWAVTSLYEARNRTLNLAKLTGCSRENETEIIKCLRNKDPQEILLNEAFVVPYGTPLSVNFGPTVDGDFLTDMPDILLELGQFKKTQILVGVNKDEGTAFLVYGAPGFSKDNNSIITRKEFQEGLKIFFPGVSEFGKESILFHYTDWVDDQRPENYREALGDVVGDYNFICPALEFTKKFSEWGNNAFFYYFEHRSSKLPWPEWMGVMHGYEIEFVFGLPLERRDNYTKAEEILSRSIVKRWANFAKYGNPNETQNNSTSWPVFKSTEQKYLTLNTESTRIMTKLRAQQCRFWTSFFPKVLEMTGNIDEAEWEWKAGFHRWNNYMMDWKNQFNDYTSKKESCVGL
Protocol: as §2

[5] = biological target: T3, Aβ1-40 aggregation (Homo sapiens, UniProt P05067); assay: Inhibition of Aβ40 aggregation, ThT fluorescence; format: biochemical; conditions: inhibitor 10 µM, Aβ40 30 µM, PBS pH 7.4, 2% HFIP, 2 h 25 °C, mean ± SEM; for inhibition at 10 µM: read-out: Aβ1-40 Aggregation (I% at 10 µM)
T3 construct: purchased EZBiolab
T3 sequence (P05067 672-711 limits assumed): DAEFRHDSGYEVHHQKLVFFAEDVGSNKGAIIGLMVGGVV
Protocol: ThT fluorescence in the presence of Aβ was measured for each compound according a previously described procedure. The samples were co-incubated and mixed in 96-well black, non-binding microplates (Greiner Bio-One GmbH, Frickenhausen, Germany), incubating Aβ40 (EZBiolab, Carmel, IN, USA) at a final concentration of 30 µM with each inhibitors at a final concentration of 10 µM in PBS (pH 7.4) containing 2% 1,1,1,3,3,3-hexafluoro-2-propanol (HFIP). After 2 h at 25 °C, a 25 µM ThT solution was added and fluorescence was determined using the multi-plate reader Tecan Infinite M1000 Pro (Tecan, Cernusco S.N., Italy). The results are reported as mean of three independent experiments ± SEM [13].

| SMILES | IC50 [1] [µM] | IC50 [2] [µM] | IC50 at 1 h [3] [µM] | IC50 at 24 h [3] [µM] | IC50 [4] [µM] | inhibition at 10 µM [5] [%] | hAChE I% at 10 µM [2] | hBChE I% at 10 µM ([4]; inhibition at 10 µM) | Aβ1-40 Aggregation (I% at 10 µM) [5] |
| --- | --- | --- | --- | --- | --- | --- | --- | --- | --- |
| O=C(NCC1CCN(Cc2ccccc2)CC1)c1ccc2c(c1)Nc1ccccc1S2 [Compound 11a, N-((1-Benzylpiperidin-4-yl)methyl)-10H-phenothiazine-2-carboxamide] | 8.31 ± 1.4 | 0.597 ± 0.064 | > 100 | > 100 | 2.16 ± 0.27 | 8 | – | – | – |
| O=C(NCC1CCN(Cc2ccccc2Cl)CC1)c1ccc2c(c1)Nc1ccccc1S2 [Compound 11b, N-((1-(2-Chlorobenzyl)piperidin-4-yl)methyl)-10H-phenothiazine-2-carboxamide] | 55.3 ± 1.1 | – | > 100 | 21.2 ± 1 | 1.98 ± 0.12 | 20 | 52% ± 1 ^b | – | – |
| Cc1ccccc1CN1CCC(CNC(=O)c2ccc3c(c2)Nc2ccccc2S3)CC1 [Compound 11c, N-((1-(2-Methylbenzyl)piperidin-4-yl)methyl)-10H-phenothiazine-2-carboxamide] | 17.6 ± 0.5 | – | > 100 | 15.2 ± 1.2 | 1.47 ± 0.03 | 47 | 44% ± 2 ^b | – | – |
| O=C(NCC1CCN(Cc2ccccc2F)CC1)c1ccc2c(c1)Nc1ccccc1S2 [Compound 11d, N-((1-(2-Fluorobenzyl)piperidin-4-yl)methyl)-10H-phenothiazine-2-carboxamide] | 1.82 ± 0.6 | 1.75 ± 0.11 | > 100 | 9.33 ± 0.86 | 1.2 ± 0.01 | 43 | – | – | – |
| COc1cccc(CN2CCC(CNC(=O)c3ccc4c(c3)Nc3ccccc3S4)CC2)c1 [Compound 11e, N-((1-(3-Methoxybenzyl)piperidin-4-yl)methyl)-10H-phenothiazine-2-carboxamide] | 3.21 ± 0.5 | – | > 100 | 29 ± 1.1 | – | 24 | 22% ± 4 ^b | 47% ± 1 ^b | – |
| O=C(NCCN1CCN(Cc2ccccc2)CC1)c1ccc2c(c1)Nc1ccccc1S2 [Compound 12a, N-(2-(4-Benzylpiperazin-1-yl)ethyl)-10H-phenothiazine-2-carboxamide] | 1.13 ± 0.41 | 0.943 ± 0.046 | > 100 | > 100 | 2.02 ± 0.03 | 43 | – | – | – |
| O=C(NCCN1CCN(Cc2ccccc2Cl)CC1)c1ccc2c(c1)Nc1ccccc1S2 [Compound 12b, N-(2-(4-(2-Chlorobenzyl)piperazin-1-yl)ethyl)-10H-phenothiazine-2-carboxamide] | 18.7 ± 0.2 | 1.85 ± 0.15 | > 100 | 31.8 ± 2 | – | 27 | – | – | – |
| Cc1ccccc1CN1CCN(CCNC(=O)c2ccc3c(c2)Nc2ccccc2S3)CC1 [Compound 12c, N-(2-(4-(2-Methylbenzyl)piperazin-1-yl)ethyl)-10H-phenothiazine-2-carboxamide] | 4.21 ± 0.81 | – | > 100 | > 100 | 2.5 ± 0.06 | – | 56% ± 3 ^b | – | – |
| O=C(NCCN1CCN(Cc2ccccc2F)CC1)c1ccc2c(c1)Nc1ccccc1S2 [Compound 12d, N-(2-(4-(2-Fluorobenzyl)piperazin-1-yl)ethyl)-10H-phenothiazine-2-carboxamide] | 14.6 ± 0.5 | 0.599 ± 0.112 | > 100 | > 100 | 4.33 ± 0.19 | 60 | – | – | – |
| CC(=O)N1c2ccccc2Sc2ccc(C(=O)NCCN3CCN(Cc4ccccc4Cl)CC3)cc21 [Compound 13, 10-Acetyl-N-(2-(4-(2-chlorobenzyl)piperazin-1-yl)ethyl)-10H-phenothiazine-2-carboxamide] | 0.63 ± 0.1 | – | > 100 | 55.3 ± 1.22 | – | – | 48% ± 5 ^b | – | lack of activity |
